This data set is described as follows: Chemical stability of the active ingredients in the composition. The conditions noted are these: in Composition 1. Format: physicochemical. On the procedure:
The stability of the active ingredients per se were also measured under a wide variation of temperature conditions.

Structures are written as SMILES.

In turn, `CCOc1nc(F)cc2nc(S(=O)(=O)Nc3c(Cl)cccc3C(=O)OC)nn12` [Cloransulam-methyl] returned an active ingredient content (2 wks@ 54° C.) of 0.70 % wt, an active ingredient content (2 wks@ −18° C.) of 0.76 % wt and an active ingredient content (Initial) of 0.77 % wt.

For the compound `CCc1cccc(C)c1N(C(=O)CCl)C(C)COC` (stereo not drawn) [S-metalachlor, S-metolachlor], the active ingredient content by setting is: (2 wks@ 54° C.) 38.4 % wt; (2 wks@ −18° C.) 38.2 % wt; (Initial) 38.5 % wt.

Turning to `CSc1nnc(C(C)(C)C)c(=O)n1N` [Metribuzin], the active ingredient content amounted to 7.1 % wt (2 wks@ 54° C.), 7.1 % wt (2 wks@ −18° C.) and 7.2 % wt (Initial).
